Experimental data taken from a melting point compilation (Tetko et al.; mined from patent text by program, amines drawn as free bases though some values may be those of a salt).

Structure (SMILES) | melting point
O=C(O)c1ccc(NCCCOc2ccccc2)cc1 | 159 to 162 °C
CCOC(=O)CCNC(=O)CCCCNC(=O)OC(C)(C)C | 28 °C
CCCn1c2c(ccc1=O)C(NCCc1ccc(Cl)c(Cl)c1)CCC2 (stereo not given) | 105 to 107 °C
CCCc1c(O)c(C(C)=O)cc(Cl)c1OCCCOc1c(C(C)=O)ccc(OCC(=O)O)c1CCC | 119 to 121 °C
CC(=O)C(=Cc1cc(O)c(O)c(C(F)(F)F)c1)C(C)=O | 198 to 205 °C
CCn1cc(C(=O)O)c(=O)cc1-c1ccc(N(C)C)cc1 | 258 to 259 °C
COC(=O)c1ccc(OC)c(C(C)=O)c1 | 54 to 58 °C
CCOC(=O)/C=C/c1cn(Cc2ccc(OCc3ccccc3)cc2)nc1-c1ccc(F)cc1 | 113 to 114 °C
N#Cc1ccc(C(Cl)=NNc2c(Cl)cc(C(F)(F)F)cc2Cl)cc1 | 168 to 169 °C
NC(=O)c1cccc(-c2nc3sccn3c2-c2ccnc(N[C@@H]3CCCNC3)n2)c1 | 202 to 205 °C
O=C1CN(c2ccccc2)C1=O | 115 to 117 °C
S=c1[nH]cnc2c(Br)csc12 | 328 °C
CC(C)(C)c1cc(CCc2ccccc2NC(=O)NC2CCC(O)CC2)cc(C(C)(C)C)c1O (stereo not given) | 202 to 203 °C
CCOC(=O)c1ccc(C=C(CCCc2ccc(C(=O)O)cc2)Cn2ccnc2)cc1 | 167 to 170 °C
CON=C(c1cc(C)no1)c1ccccc1CON=C(C)c1ccc(Cl)c(Cl)c1 | 84 to 85 °C
CCN(C)N1CSC(=Cc2cc(C(C)(C)C)c(O)c(C(C)(C)C)c2)C1=O | 134 to 135 °C
O=C1OCCCC1=Cc1ccccc1OCC(O)CN1CCC(c2ccc3ccccc3c2)CC1 (stereo not given) | 142 to 144 °C
COC(=O)c1ccc(C(C(N)=O)C(C)c2cc([N+](=O)[O-])ccc2N2CCCCC2)cc1 (stereo not given) | 178 to 180 °C
COc1cc(NC(C)CCCN2C(=O)c3ccccc3C2=O)c2ncccc2c1Oc1ccc(Cl)cc1 (stereo not given) | 75 to 77 °C
COc1nc(C)nc2c1-c1ccc(Cl)cc1C(c1ccccc1F)=NC2 | 188 to 189 °C
Cc1ccccc1OCC(O)CN(CCOc1ncccc1C(N)=O)Cc1ccccc1 (stereo not given) | 109 to 112 °C
CC1COCc2nc3c(N)nc4cc(C=CC(=O)N(C)C)ccc4c3n21 (stereo not given) | > 250 °C
CCC1(O)CC(=O)OCc2c1cc1n(c2=O)Cc2c-1nc1cc(F)c(F)cc1c2-c1ccccc1 (stereo not given) | > 250 °C
CCOC(=O)Nc1nc2cc(-c3cccnc3)cc(-c3ccccn3)c2s1 | 235 °C
CCOC(=O)c1cn(-c2nccs2)c2nc(Cl)cc(NCc3ccccc3)c2c1=O | 141 to 143 °C
NC(=O)c1[nH]c2ccc(Cl)cc2c1S(=O)(=O)c1ccccc1 | 253 to 254 °C
O=C(CCNC(=O)c1ccccc1)NCCSC(=O)c1ccccc1 | 154 to 155 °C
N#Cc1nn(-c2c(Cl)cc(C(F)(F)F)cc2Cl)c(N)c1C#CCO | 237 to 239 °C

Further lines, results first:

melting point | Structure (SMILES)
86 to 89 °C | CN1c2ccc(C=O)cc2CCC1c1ccccc1 (stereo not given)
158 to 159 °C | COc1ccc(CN(CC2CCOCC2)S(=O)(=O)c2ccc(Cl)cc2)cc1C(=O)O
244 to 246 °C | Cc1nc(N)c2ncn(Cc3cc(-c4ccc(F)cc4)no3)c2c1C
173 to 175 °C | C=Cc1ccc(CSC(CC(=O)O)C(=O)O)cc1 (stereo not given)
150 to 165 °C | OC(CNCCNc1ccc2[nH]ncc2c1)COc1ccccc1 (stereo not given)
105 to 106 °C | CCCCCCOc1cc(-c2cccc(N)c2)c(OCCCCCC)cc1-c1cccc(N)c1
160 to 161 °C | CC(=O)Nc1nc(CCc2ccc(CC#N)cc2)cs1
144 to 145 °C | CC(=O)N1CC(=O)N2CCc3ccccc3C2C1 (stereo not given)
158 to 160 °C | COc1ccc(C2=NN(C3CCN(S(=O)(=O)c4ccccc4C#N)CC3)C(=O)CC2)cc1OC
163 to 165 °C | CCC(=O)N[C@@H](C)C(=O)N1CCC[C@H]1C(=O)NC
83 to 84 °C | COC(c1ccccc1)C1CCCCCC(Cc2ccccc2)C1=O (stereo not given)
186 °C | COc1ccc2ccc3c(c2c1)CC(NC(C)=O)CO3 (stereo not given)
250 °C | CCCC(=O)Nc1n[nH]c2cc(Cl)c(Br)cc12
234 to 236 °C | O=C1CCC(N2C(=O)c3cccc(OCc4cc5ccccc5o4)c3C2=O)C(=O)N1 (stereo not given)
157 to 159 °C | CC(C)C(=O)Nc1cc([N+](=O)[O-])cc([N+](=O)[O-])c1
201 to 202 °C | CN(c1cccc2cc(-c3nccs3)[nH]c12)S(=O)(=O)c1cccs1
183 to 184 °C | CCCc1nc2c(N)nc3ccccc3c2n1CCCCNC(=O)Nc1ccccc1
124 to 125 °C | N#CCNC(=O)c1ccnc(F)c1
183 to 184 °C | C[Si](C)(C)C#Cc1ccc(-n2c(-c3ccccc3)ccc2-c2ccccc2)cc1
115 to 116 °C | O=C(O)CCCCCCCNS(=O)(=O)c1ccc(Br)cc1
119 °C | N#Cc1ccc(C=Cc2ccccc2)cc1
135 to 137 °C | CCCCc1nc(C)n2nc(S)nc2c1Cc1ccc(-c2ccccc2)c(-c2nnn[nH]2)c1
